Results reported in patent US20150125889A1, “IN VITRO DETECTION OF MICROORGANISMS WITH AZOREDUCTASE ACTIVITY” (BIOMÉRIEUX, priority 2012, published 2015).

Columns and labels:
Assay in all cases: Reduction of azo substrates over 24 hours at 35° C., microtitration plate (Example 1)
Assay type in all cases: cell-based
[1] = system: Acinetobacter baumanii; parameters: key to RED (substrate reduced or not): RED indicates whether the substrate is reduced (Y) or not (N); RED indicates whether the substrate is reduced (Y) or not (N); key to Decol (substrate decolourized, decrease in absorbance) / Fluo (fluorescence multiplied by 2 relative to substrate-free control) / Co (growth, absorbance at 660 nm): The symbol “+” means good growth/decolourization/significant increase in fluorescence; The symbol “+/−” means difficult growth; The symbol “−” means that there is no growth/decolourization/significant increase in fluorescence; conditions: A. baumannii, substrate 35 mg/l
Protocol: (§1) Reduction of the “azo” function of the substrates listed in Table I by the species listed in Table II, each species being represented by a strain, is tested in a microtitration plate.
(§2) The reaction medium consists of: • Trypcase soya broth • Substrate 35 mg/l • 0.5 MacFarland inoculum
(§3) The reduction of the substrate and the growth of the microorganisms are monitored using an Infinite® M200 Tecan microplate reader at 35° C. over 24 hours.
(§4) The growth is monitored by the absorbance at 660 nm and the reduction of the substrates by absorbance and fluorescence at the specific wavelengths indicated in Table III.
(§5) The substrate is considered as reduced by the microorganisms when the substrate is decolourized (monitored by the decrease in absorbance) (Decol) and/or when the fluorescence of the substrate is multiplied by 2 relative to the base fluorescence of a substrate-free control (Fluo). The growth is indicated by Co. The symbol “+” means good growth/decolourization/significant increase in fluorescence. The symbol “+/−” means difficult growth. The symbol “−” means that there is no growth/decolourization/significant increase in fluorescence. RED indicates whether the substrate is reduced (Y) or not (N).

[2] = system: Enterococcus faecalis; parameters: key to RED (substrate reduced or not): RED indicates whether the substrate is reduced (Y) or not (N); RED indicates whether the substrate is reduced (Y) or not (N); key to Decol (substrate decolourized, decrease in absorbance) / Fluo (fluorescence multiplied by 2 relative to substrate-free control) / Co (growth, absorbance at 660 nm): The symbol “+” means good growth/decolourization/significant increase in fluorescence; The symbol “+/−” means difficult growth; The symbol “−” means that there is no growth/decolourization/significant increase in fluorescence; conditions: E. faecalis, substrate 35 mg/l
Protocol: as §1, §2, §3, §4, §5

[3] = system: Pseudomonas aeruginosa; parameters: key to RED (substrate reduced or not): RED indicates whether the substrate is reduced (Y) or not (N); RED indicates whether the substrate is reduced (Y) or not (N); key to Co (growth, absorbance at 660 nm) / Decol (substrate decolourized, decrease in absorbance) / Fluo (fluorescence multiplied by 2 relative to substrate-free control): The symbol “+” means good growth/decolourization/significant increase in fluorescence; The symbol “+/−” means difficult growth; The symbol “−” means that there is no growth/decolourization/significant increase in fluorescence; conditions: P. aeruginosa, substrate 35 mg/l
Protocol: as §1, §2, §3, §4, §5

[4] = system: Staphylococcus epidermidis; parameters: key to RED (substrate reduced or not): RED indicates whether the substrate is reduced (Y) or not (N); RED indicates whether the substrate is reduced (Y) or not (N); key to Co (growth, absorbance at 660 nm) / Decol (substrate decolourized, decrease in absorbance) / Fluo (fluorescence multiplied by 2 relative to substrate-free control): The symbol “+” means good growth/decolourization/significant increase in fluorescence; The symbol “+/−” means difficult growth; The symbol “−” means that there is no growth/decolourization/significant increase in fluorescence; conditions: S. epidermidis, substrate 35 mg/l
Protocol: as §1, §2, §3, §4, §5

[5] = system: Staphylococcus aureus; parameters: key to RED (substrate reduced or not): RED indicates whether the substrate is reduced (Y) or not (N); RED indicates whether the substrate is reduced (Y) or not (N); key to Co (growth, absorbance at 660 nm) / Decol (substrate decolourized, decrease in absorbance) / Fluo (fluorescence multiplied by 2 relative to substrate-free control): The symbol “+” means good growth/decolourization/significant increase in fluorescence; The symbol “+/−” means difficult growth; The symbol “−” means that there is no growth/decolourization/significant increase in fluorescence; conditions: S. aureus, substrate 35 mg/l
Protocol: as §1, §2, §3, §4, §5

[6] = system: Geotrichum candidum; parameters: key to RED (substrate reduced or not): RED indicates whether the substrate is reduced (Y) or not (N); RED indicates whether the substrate is reduced (Y) or not (N); key to Co (growth, absorbance at 660 nm) / Decol (substrate decolourized, decrease in absorbance) / Fluo (fluorescence multiplied by 2 relative to substrate-free control): The symbol “+” means good growth/decolourization/significant increase in fluorescence; The symbol “+/−” means difficult growth; The symbol “−” means that there is no growth/decolourization/significant increase in fluorescence; conditions: G. candidum, substrate 35 mg/l
Protocol: as §1, §2, §3, §4, §5

[7] = system: Candida albicans; parameters: key to RED (substrate reduced or not): RED indicates whether the substrate is reduced (Y) or not (N); RED indicates whether the substrate is reduced (Y) or not (N); key to Co (growth, absorbance at 660 nm) / Decol (substrate decolourized, decrease in absorbance) / Fluo (fluorescence multiplied by 2 relative to substrate-free control): The symbol “+” means good growth/decolourization/significant increase in fluorescence; The symbol “+/−” means difficult growth; The symbol “−” means that there is no growth/decolourization/significant increase in fluorescence; conditions: substrate 35 mg/l
Protocol: as §1, §2, §3, §4, §5

[8] = system: Kocuria rosea; parameters: key to RED (substrate reduced or not): RED indicates whether the substrate is reduced (Y) or not (N); RED indicates whether the substrate is reduced (Y) or not (N); key to Co (growth, absorbance at 660 nm) / Decol (substrate decolourized, decrease in absorbance) / Fluo (fluorescence multiplied by 2 relative to substrate-free control): The symbol “+” means good growth/decolourization/significant increase in fluorescence; The symbol “+/−” means difficult growth; The symbol “−” means that there is no growth/decolourization/significant increase in fluorescence; conditions: K. rosea, substrate 35 mg/l
Protocol: as §1, §2, §3, §4, §5

[9] = system: Escherichia coli; parameters: key to RED (substrate reduced or not): RED indicates whether the substrate is reduced (Y) or not (N); RED indicates whether the substrate is reduced (Y) or not (N); key to Co (growth, absorbance at 660 nm) / Decol (substrate decolourized, decrease in absorbance) / Fluo (fluorescence multiplied by 2 relative to substrate-free control): The symbol “+” means good growth/decolourization/significant increase in fluorescence; The symbol “+/−” means difficult growth; The symbol “−” means that there is no growth/decolourization/significant increase in fluorescence; conditions: E. coli, substrate 35 mg/l
Protocol: as §1, §2, §3, §4, §5

[10] = system: Cronobacter muytjensii; parameters: key to RED (substrate reduced or not): RED indicates whether the substrate is reduced (Y) or not (N); RED indicates whether the substrate is reduced (Y) or not (N); key to Co (growth, absorbance at 660 nm) / Decol (substrate decolourized, decrease in absorbance) / Fluo (fluorescence multiplied by 2 relative to substrate-free control): The symbol “+” means good growth/decolourization/significant increase in fluorescence; The symbol “+/−” means difficult growth; The symbol “−” means that there is no growth/decolourization/significant increase in fluorescence; conditions: E. muytjensii, substrate 35 mg/l
Protocol: as §1, §2, §3, §4, §5

With `O=C(O)c1ccccc1/N=N/c1cc(Cl)c(O)c(Cl)c1` [2-(4-Hydroxy-3,5-dichlorophenylazo)benzoic acid] the “Co (growth, absorbance at 660 nm)” value [1] was “+”, the “Decol (substrate decolourized, decrease in absorbance)” value [1] was “+” and the “Fluo (fluorescence multiplied by 2 relative to substrate-free control)” value [1] was “+”. For the same compound, the “RED (substrate reduced or not)” value [1] was “Y”, the “Co (growth, absorbance at 660 nm)” value [2] was “+” and the “Decol (substrate decolourized, decrease in absorbance)” value [2] was “+”. The “Fluo (fluorescence multiplied by 2 relative to substrate-free control)” value [2] was “+”, the “RED (substrate reduced or not)” value [2] was “Y” and the “Co (growth, absorbance at 660 nm)” value [3] was “+”. The “Decol (substrate decolourized, decrease in absorbance)” value [3] was “−”, the “Fluo (fluorescence multiplied by 2 relative to substrate-free control)” value [3] was “+” and the “RED (substrate reduced or not)” value [3] was “Y”. For the same compound, the “Co (growth, absorbance at 660 nm)” value [4] was “+”, the “Decol (substrate decolourized, decrease in absorbance)” value [4] was “+” and the “Fluo (fluorescence multiplied by 2 relative to substrate-free control)” value [4] was “+”. For the same compound, the “RED (substrate reduced or not)” value [4] was “Y”, the “Co (growth, absorbance at 660 nm)” value [5] was “+” and the “Decol (substrate decolourized, decrease in absorbance)” value [5] was “+”. For the same compound, the “Fluo (fluorescence multiplied by 2 relative to substrate-free control)” value [5] was “+”, the “RED (substrate reduced or not)” value [5] was “Y” and the “Co (growth, absorbance at 660 nm)” value [6] was “+”. The “Decol (substrate decolourized, decrease in absorbance)” value [6] was “+”, the “Fluo (fluorescence multiplied by 2 relative to substrate-free control)” value [6] was “+” and the “RED (substrate reduced or not)” value [6] was “Y”. For the same compound, the “Co (growth, absorbance at 660 nm)” value [7] was “+”, the “Decol (substrate decolourized, decrease in absorbance)” value [7] was “−” and the “Fluo (fluorescence multiplied by 2 relative to substrate-free control)” value [7] was “−”. For the same compound, the “RED (substrate reduced or not)” value [7] was “N”, the “Co (growth, absorbance at 660 nm)” value [8] was “−” and the “Decol (substrate decolourized, decrease in absorbance)” value [8] was “−”. For the same compound, the “Fluo (fluorescence multiplied by 2 relative to substrate-free control)” value [8] was “−”, the “Co (growth, absorbance at 660 nm)” value [9] was “+” and the “Decol (substrate decolourized, decrease in absorbance)” value [9] was “+”. For the same compound, the “Fluo (fluorescence multiplied by 2 relative to substrate-free control)” value [9] was “+”, the “RED (substrate reduced or not)” value [9] was “Y” and the “Co (growth, absorbance at 660 nm)” value [10] was “+”. For the same compound, the “Decol (substrate decolourized, decrease in absorbance)” value [10] was “+”, the “Fluo (fluorescence multiplied by 2 relative to substrate-free control)” value [10] was “+” and the “RED (substrate reduced or not)” value [10] was “Y”.

For `CC(=O)Oc1ccc(/N=N/c2ccccc2C(=O)O)cc1` [2-(4-acetoxyphenylazo)benzoic acid, 2-(4-Acetoxyphenylazo)benzoic acid], the “Co (growth, absorbance at 660 nm)” value [1] was “+”, the “Decol (substrate decolourized, decrease in absorbance)” value [1] was “+” and the “Fluo (fluorescence multiplied by 2 relative to substrate-free control)” value [1] was “+”. For the same compound, the “RED (substrate reduced or not)” value [1] was “Y”, the “Co (growth, absorbance at 660 nm)” value [2] was “+” and the “Decol (substrate decolourized, decrease in absorbance)” value [2] was “+”. The “Fluo (fluorescence multiplied by 2 relative to substrate-free control)” value [2] was “+”, the “RED (substrate reduced or not)” value [2] was “Y” and the “Co (growth, absorbance at 660 nm)” value [3] was “+”. For the same compound, the “Decol (substrate decolourized, decrease in absorbance)” value [3] was “−”, the “Fluo (fluorescence multiplied by 2 relative to substrate-free control)” value [3] was “−” and the “RED (substrate reduced or not)” value [3] was “N”. The “Co (growth, absorbance at 660 nm)” value [4] was “+”, the “Decol (substrate decolourized, decrease in absorbance)” value [4] was “+” and the “Fluo (fluorescence multiplied by 2 relative to substrate-free control)” value [4] was “+”. For the same compound, the “RED (substrate reduced or not)” value [4] was “Y”, the “Co (growth, absorbance at 660 nm)” value [5] was “+” and the “Decol (substrate decolourized, decrease in absorbance)” value [5] was “+”. For the same compound, the “Fluo (fluorescence multiplied by 2 relative to substrate-free control)” value [5] was “+”, the “RED (substrate reduced or not)” value [5] was “Y” and the “Co (growth, absorbance at 660 nm)” value [6] was “+”. The “Decol (substrate decolourized, decrease in absorbance)” value [6] was “+”, the “Fluo (fluorescence multiplied by 2 relative to substrate-free control)” value [6] was “+” and the “RED (substrate reduced or not)” value [6] was “Y”. The “Co (growth, absorbance at 660 nm)” value [7] was “+”, the “Decol (substrate decolourized, decrease in absorbance)” value [7] was “−” and the “Fluo (fluorescence multiplied by 2 relative to substrate-free control)” value [7] was “−”. For the same compound, the “RED (substrate reduced or not)” value [7] was “N”, the “Co (growth, absorbance at 660 nm)” value [8] was “−” and the “Decol (substrate decolourized, decrease in absorbance)” value [8] was “−”. The “Fluo (fluorescence multiplied by 2 relative to substrate-free control)” value [8] was “−”, the “Co (growth, absorbance at 660 nm)” value [9] was “+” and the “Decol (substrate decolourized, decrease in absorbance)” value [9] was “+”. For the same compound, the “Fluo (fluorescence multiplied by 2 relative to substrate-free control)” value [9] was “+”, the “RED (substrate reduced or not)” value [9] was “Y” and the “Co (growth, absorbance at 660 nm)” value [10] was “+”. The “Decol (substrate decolourized, decrease in absorbance)” value [10] was “+”, the “Fluo (fluorescence multiplied by 2 relative to substrate-free control)” value [10] was “+” and the “RED (substrate reduced or not)” value [10] was “Y”.
